In paper PMC7018972, “Novel and selective inactivators of Triosephosphate isomerase with anti-trematode activity” (Scientific Reports, 2020):
“Also recorded” adds a separate entry of the source. Marks after values point to notes of the source that are not given here.

Tests used:
[1] = test system: S. mansoni somules; test: S. mansoni somules phenotypic screen in vitro; assay type: cell-based, Schistosoma mansoni; conditions: for SOMULES SEVERITY SCORE: Table 2S, 10 uM
From the text: (§1) The NMRI isolate of S. mansoni was maintained by passage through Biomphalaria glabrata snails and 3–5 week-old, female Golden Syrian hamsters (Charles River, San Diego, CA) as intermediate and definite hosts, respectively. A dose of 600 infective larvae (cercariae) was used to infect hamsters. The acquisition, preparation and in vitro maintenance of S. mansoni post-infective larvae (schistosomula or somules) and adults have been already described[5],[50],[51]. Vertebrate animal maintenance and handling at the University of California San Diego Animal Care Facility were in accordance with protocols approved by the university’s Institutional Animal Care and Use Committee (IACUC).
Phenotypic screens with somules were performed as described[5],[50],[51]. Initially, 100 μL Basch medium, 100 U/ml penicillin, […] streptomycin, 4% heat-inactivated FBS (Corning Mediatech) and 1 μl compound in DMSO were added to clear, 96-well round-bottomed plates (Costar cat.# 3367). Then, 100 μL of the same medium containing 40–50 somules was added to mix the compound with somules (final concentration of DMSO was 0.5%). Assay plates were placed into plastic boxes humidified with wet tissue and then incubated at 37 °C in a 5% CO2 environment. Somules phenotypes were recorded every 24 h up to 72 h using an inverted microscope (Zeiss Axiovert 40 C).
(§2) Schistosome phenotypic responses were recorded employing a series of ‘descriptors,’ such as rounding, degeneration, overactivity, loss of translucency and changes in motility, as described previously[5],[50],[51],[53]. To allow for comparisons of compound activity, each descriptor was awarded a value of 1 and these were added up to a maximum ‘severity score’ of 4. Evidence of degeneracy or death was awarded the maximum score of 4. Scores were averaged across duplicate wells for each compound (see details in the supporting information).

[2] = test system: S. mansoni adults; test: S. mansoni adults phenotypic screen ex vivo; assay type: cell-based, Schistosoma mansoni; conditions: for ADULTS SEVERITY SCORE: Table 2S, 5 uM
From the text: as §1
Phenotypic screens with 42-day-old, adult parasites were performed in 24-well plates (Costar cat.# 3526) containing the above medium and approximately five adult males and two females per well. Compound was added in a volume of up to 1 μL DMSO at a concentration of 5 µM (0.05% DMSO final). Assay plates were incubated at 37 °C in a 5% CO2 environment. Parasite phenotypes were recorded at 4, 8 and 24 h using a Zeiss Axiovert 40 C.
as §2

[3] = test system: adult form of F. hepatica; test: Ex-vivo assay in the adult form of F. hepatica; assay type: cell-based, Fasciola hepatica
Description: F. hepatica were collected from natural infections of cattle obtained from Casablanca slaughterhouse in Paysandú, Uruguay[49]. […] After flukes emptied their gut content (i.e. the gut was not dark anymore) they were transferred to 6 well plates (one fluke per well) with 2 mL of RPMI 1640 media with 200 U/mL Penicillin G sulfate, […] streptomycin sulfate, 500 ng/mL amphotericin B and 10 mM glucose at 37 °C. […] The antiparasitic efficacy was expressed as the percentage reduction of the number of flukes in the treated group compared with the control group.

[4] = Acute oral toxicity (up-and-down); assay type: in vivo; conditions: mice
Description: Briefly, healthy young adult male BALB/c mice (30 days old, 25 to 30 g) were used in this study. […] The animal was fasted, maintained, and observed for 14 days according to the OECD guidelines. If the mouse survived for the first 48 h, another animal received the same dose. If this was repeated, a third animal was dosed with 2,000 mg/kg and also observed for 14 days. The experiment ends at 14 days post-administration, if there are no signs of toxicity, the (LD50) is the administered dose, if not, the software AOT AOT425 Stat program recommendation was followed. […] In parallel, sodium oleate was dissolved in phosphate buffer and left in an orbital shaker for 12 h at room temperature. The former was then added to the evaporated residue, and the mixture was homogenized and placed in an ultrasonic bath at full power for 30 min. The sample was kept at room temperature until use.

[5] = test system: murine macrophages and human peripheral blood mononuclear cells; design: method as in PMID 22536349; conditions: at 100 µM; cited from earlier work
[6] = test system: thioredoxin glutathione reductase; design: method as in PMID 22536349; conditions: cited from earlier work
[7] = test system: NEJ; design: method as in PMID 22536349; conditions: 48 h, fixed dose of 20 µM; cited from earlier work
[8] = test system: Echinococcus granulosus protoscolex; design: method as in PMID 22536349; conditions: 48 h, fixed dose of 20 µM; cited from earlier work

## Cc1ccc(-c2nsc(S(=O)(=O)c3ccc(C)cc3)n2)cc1 [Compound 187]
[1]; Table 2, 24 h, score 0 to maximum 4
  S. mansoni somules severity score: 4 (24 h)^##
[1]; 24 h
  SOMULES SEVERITY SCORE: 4
[1]; 48 h
  SOMULES SEVERITY SCORE: 4
[1]; 3d
  SOMULES SEVERITY SCORE: 4
[1]; in the first 24 h
  effect on S. mansoni somules in words: lethal to somules
[2]; 24 h, 5 µM
  effect on S. mansoni adults in words: decreased the motility of adults and the ability of their oral and ventral suckers to adhere; also recorded: decreased motility and loss of their ventral sucker adherence to the plate floor
[2]; 4 h
  ADULTS SEVERITY SCORE: 0
[2]; 8 h
  ADULTS SEVERITY SCORE: 0
[2]; 24 h
  ADULTS SEVERITY SCORE: 2
[3]; after 24 h, 10 µM
  effect on adult F. hepatica in words: death of all the parasites
[3]; first 4 h at 10 µM
  effect on adult F. hepatica in words: parasites were affected
[4]
  acute oral toxicity in words: low toxicity
[4]; up-and-down, 14 days
  LD50: ≥ 2000 mg/kg body weight
[5]
  toxicity in words: non-toxic
[6]
  inhibition of thioredoxin glutathione reductase in words: moderate inhibitor
[7]
  effect on NEJ in words: showed effect
[8]
  effect on Echinococcus granulosus protoscolex in words: showed effect
